By pIC50 is commonly meant −log10 of the IC50, conventionally taken in molar units.

Consider 35 molecules from patent publication US7119182B1 (The Regents of the University of California, priority 1991, dated 2006).

pEC50, pIC50: −log10 of the molar value. Square brackets hold non-standard residues; d marks the D form. Ends that are not written are not given here. Peptide text beside a SMILES is read from it. * marks the point of attachment. 2Nal = N[C@@H](Cc1ccc2ccccc2c1)C(=O)O; 2Thi = N[C@@H](Cc1cccs1)C(=O)O; Cha = N[C@@H](CC1CCCCC1)C(=O)O; Phg = N[C@H](C(=O)O)c1ccccc1; Aib = CC(C)(N)C(=O)O; X1 = O=C(c1ccccc1S)*; Mpa = O=C(O)CCS Bounds are passed on as bounds.

One assay concerns the target T1, thrombin receptor (Homo sapiens, UniProt P25116).
T1 construct: In this assay, washed human platelets are prepared by the method of Baenzinger; endogenous in cells; host or cells: washed human platelets
T1 sequence (P25116 22-425): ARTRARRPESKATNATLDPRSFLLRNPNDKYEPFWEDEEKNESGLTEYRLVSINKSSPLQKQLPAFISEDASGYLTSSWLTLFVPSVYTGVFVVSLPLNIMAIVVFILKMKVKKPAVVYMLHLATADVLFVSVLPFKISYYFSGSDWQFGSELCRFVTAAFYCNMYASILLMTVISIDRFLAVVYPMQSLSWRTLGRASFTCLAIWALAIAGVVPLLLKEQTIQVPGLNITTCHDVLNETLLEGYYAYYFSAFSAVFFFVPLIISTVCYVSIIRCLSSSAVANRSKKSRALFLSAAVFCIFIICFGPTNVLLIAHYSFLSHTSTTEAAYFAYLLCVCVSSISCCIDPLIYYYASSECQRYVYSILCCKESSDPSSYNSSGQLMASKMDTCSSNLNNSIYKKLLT
Kind of assay: Platelet activation/aggregation assays in the presence of thrombin, antagonist peptides. It counts as cell-based. The conditions noted are these: read-out: IC50 (50% inhibition of activation or aggregation). Here is the method:
Platelet Aggregation: In this assay, washed human platelets are prepared by the method of Baenzinger, M. G., Meth Enzymol (1974) 31:149–155, or as described by Charo, I. F., et al., J Clin Invest (1977) 63:866–873.
Washed platelets are suspended in modified Tyrode's buffer, pH 7.4 with 2 mM magnesium and 1 mM calcium at a concentration of 10^8 platelets/ml.
About 20 μl Chromolume® reagent (Chronolog Corporation, Havertown, Pa.) is added. In addition to measuring aggregation, ATP secretion is assessed. […] Platelet ATP secretion is measured in a lumiaggregometer as luminescence signal. […] Preincubation is not necessary for testing agonists or antagonists which interact directly with the receptor.
Platelet Aggregation Assay Using Microtiter Plates: Thrombin- or agonist-mediated platelet aggregation as measured with washed platelets in 96-well microtiter plates was performed as described (Fratantoni, J. C. et al., Am J Clin Pathol (1990) 94:613–617).
Take `CC(C)C[C@H](NC(=O)[C@H](Cc1ccccc1)NC(=O)CCS)C(=O)N[C@@H](CC(C)C)C(=O)N[C@@H](CCCNC(=N)N)C(=O)N[C@@H](CC(N)=O)C(=O)N1CCC[C@H]1C(=O)N[C@@H](CC(N)=O)C(=O)N[C@@H](CC(=O)O)C(=O)N[C@@H](CCCCN)C(=O)O` ([Mpa]FLLRNPNDK-OH): the pIC50 was 4.10. With `N=C(N)NCCC[C@H](NC(=O)[C@H](CC1CCCCC1)NC(=O)[C@H](CC1CCCCC1)NC(=O)[C@H](Cc1ccccc1)NC(=O)CCS)C(=O)N[C@@H](CC(N)=O)C(=O)N1CCC[C@H]1C(=O)N[C@@H](CC(N)=O)C(=O)N[C@@H](CC(=O)O)C(=O)N[C@@H](CCCCN)C(=O)N[C@@H](Cc1ccc(O)cc1)C(=O)N[C@@H](CCC(=O)O)C(N)=O` ([Mpa]F[Cha][Cha]RNPNDKYE-NH2), the pIC50 was 4.10. Regarding `N=C(N)NCCC[C@H](NC(=O)[C@H](CC1CCCCC1)NC(=O)[C@H](CC1CCCCC1)NC(=O)[C@H](Cc1ccccc1)NC(=O)c1ccccc1S)C(=O)N[C@@H](CCCCN)C(=O)N1CCC[C@H]1C(=O)N[C@@H](CC(N)=O)C(=O)N[C@@H](CC(=O)O)C(=O)N[C@@H](CCCCN)C(N)=O` [(2-Mba)-F(Cha)(Cha)RKPNDK-NH2] (X1-F[Cha][Cha]RKPNDK-NH2), the pIC50 was 4.30. Take `CSCCC(=O)N[C@@H](Cc1ccccc1)C(=O)N[C@@H](CC1CCCCC1)C(=O)N[C@@H](CC1CCCCC1)C(=O)N[C@@H](CCCNC(=N)N)C(=O)N[C@@H](CCCCN)C(=O)N1CCC[C@H]1C(=O)N[C@@H](CC(N)=O)C(=O)N[C@@H](CC(=O)O)C(=O)N[C@@H](CCCCN)C(N)=O` [(SMeMpr)-F(Cha)(Cha)RKPNDK-NH2] ([Mpa](Me)F[Cha][Cha]RKPNDK-NH2): the pIC50 is 5.00.

With `C[C@H](NC(=O)[C@H](CCCNC(=N)N)NC(=O)[C@H](CC1CCCCC1)NC(=O)[C@H](CC1CCCCC1)NC(=O)[C@H](Cc1ccccc1)NC(=O)CCS)C(=O)N1CCC[C@H]1C(=O)N[C@@H](CC(N)=O)C(=O)N[C@@H](CC(=O)O)C(=O)N[C@@H](CCCCN)C(N)=O` [Mpr-F(Cha) (Cha)RAPNDK-NH2] ([Mpa]F[Cha][Cha]RAPNDK-NH2), the pIC50 is 4.40. The same measure, in the same setting: as for `N=C(N)NCCC[C@H](NC(=O)[C@H](CC1CCCCC1)NC(=O)[C@H](CC1CCCCC1)NC(=O)[C@H](Cc1ccccc1)NC(=O)CCS)C(=O)N[C@@H](Cc1ccccc1)C(=O)N1CCC[C@H]1C(=O)N[C@@H](CC(N)=O)C(=O)N[C@@H](CC(=O)O)C(=O)N[C@@H](CCCCN)C(N)=O` [Mpr-F(Cha) (Cha)RFPNDK-NH2] ([Mpa]F[Cha][Cha]RFPNDK-NH2), the figure is less than 4.00; as for `C[C@H](NC(=O)[C@H](CC(=O)O)NC(=O)[C@H](CC(N)=O)NC(=O)[C@@H]1CCCN1C(=O)[C@H](CCCCN)NC(=O)[C@H](CCCNC(=N)N)NC(=O)[C@H](CC1CCCCC1)NC(=O)[C@H](CC1CCCCC1)NC(=O)[C@H](Cc1ccccc1)NC(=O)CCS)C(N)=O` [Mpr-F(Cha) (Cha)RKPNDA-NH2] ([Mpa]F[Cha][Cha]RKPNDA-NH2), 4.30; as for `C[C@H](NC(=O)[C@H](CC(N)=O)NC(=O)[C@H](CCCNC(=N)N)NC(=O)[C@H](CC1CCCCC1)NC(=O)[C@H](CC1CCCCC1)NC(=O)[C@H](Cc1ccccc1)NC(=O)CCS)C(=O)N[C@@H](CC(N)=O)C(=O)N[C@@H](CC(=O)O)C(=O)N[C@@H](CCCCN)C(N)=O` [Mpr-F(Cha) (Cha)RNANDK-NH2] ([Mpa]F[Cha][Cha]RNANDK-NH2), 4.12. Still for that read-out and setting: as for `C[C@H](NC(=O)[C@@H]1CCCN1C(=O)[C@H](CC(N)=O)NC(=O)[C@H](CCCNC(=N)N)NC(=O)[C@H](CC1CCCCC1)NC(=O)[C@H](CC1CCCCC1)NC(=O)[C@H](Cc1ccccc1)NC(=O)CCS)C(=O)N[C@@H](CC(=O)O)C(=O)N[C@@H](CCCCN)C(N)=O` [Mpr-F(Cha) (Cha)RNPADK-NH2] ([Mpa]F[Cha][Cha]RNPADK-NH2), the figure is 4.12. As for `C[C@H](NC(=O)[C@H](CC(N)=O)NC(=O)[C@@H]1CCCN1C(=O)[C@H](CC(N)=O)NC(=O)[C@H](CCCNC(=N)N)NC(=O)[C@H](CC1CCCCC1)NC(=O)[C@H](CC1CCCCC1)NC(=O)[C@H](Cc1ccccc1)NC(=O)CCS)C(=O)N[C@@H](CCCCN)C(N)=O` [Mpr-F(Cha) (Cha)RNPNAK-NH2] ([Mpa]F[Cha][Cha]RNPNAK-NH2), the pIC50 was less than 4.00.

Another assay concerns the target T2, washed human platelets (Homo sapiens, UniProt P25116).
T2 sequence (P25116 42-425): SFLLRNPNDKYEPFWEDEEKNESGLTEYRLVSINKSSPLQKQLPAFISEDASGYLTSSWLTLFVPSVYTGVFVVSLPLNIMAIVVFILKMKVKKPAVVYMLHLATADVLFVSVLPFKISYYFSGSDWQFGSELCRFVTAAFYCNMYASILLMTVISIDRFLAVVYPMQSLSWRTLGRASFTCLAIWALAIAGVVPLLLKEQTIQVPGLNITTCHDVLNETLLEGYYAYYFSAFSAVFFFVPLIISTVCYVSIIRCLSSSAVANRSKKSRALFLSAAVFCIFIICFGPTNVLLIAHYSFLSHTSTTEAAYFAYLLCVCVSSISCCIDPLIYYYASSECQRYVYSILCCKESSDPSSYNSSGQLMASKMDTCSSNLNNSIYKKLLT
Assay: not given
The conditions noted are these: read-out: EC50 (concentration required to elicit a 50% maximal aggregation); washed human platelets.
As to `CC(C)C[C@H](NC(=O)[C@H](CC(C)C)NC(=O)[C@H](Cc1cccs1)NC(=O)[C@@H](N)CO)C(=O)N[C@@H](CCCNC(=N)N)C(N)=O` [S(Thi)LLR-NH2] (H-S[2Thi]LLR-NH2), the pEC50 is 5.12. Same read-out and setting: under `CC(C)C[C@H](NC(=O)[C@H](CC1CCCCC1)NC(=O)[C@H](Cc1ccccc1)NC(=O)[C@@H](N)CO)C(=O)N[C@@H](CCCNC(=N)N)C(N)=O` [SF(Cha)LR-NH2] (H-SF[Cha]LR-NH2) stands 5.82; under `CC(C)C[C@H](NC(=O)[C@H](CC(C)C)N(C)C(=O)[C@H](Cc1ccccc1)NC(=O)[C@@H](N)CO)C(=O)N[C@@H](CCCN=C(N)N)C(N)=O` [SF(N-MeLeu)LR-NH2], less than 3.00; under `CC(C)C[C@H](NC(=O)[C@H](Cc1ccccc1)NC(=O)[C@@H](N)CO)C(=O)N[C@@H](Cc1ccc2ccccc2c1)C(=O)N[C@@H](CCCNC(=N)N)C(=O)N[C@@H](CC(N)=O)C(N)=O` [SFL(Nal)RN-NH2] (H-SFL[2Nal]RN-NH2), 5.12.

`CC(C)C[C@H](NC(=O)[C@H](CC(C)C)NC(=O)[C@H](Cc1ccccc1)NC(=O)[C@@H](N)CO)C(N)=O` [SFLL-NH2] (H-SFLL-NH2): the pEC50 is 3.84.

For `CC(C)C[C@H](NC(=O)[C@H](CC(C)C)NC(=O)[C@H](Cc1ccccc1)NC(=O)[C@@H](N)CO)C(=O)N[C@@H](CCCN=C(N)N)C(N)=O` [SFLLR-NH2], the pEC50 is 5.12.

SFFLRN-NH2 [SFFLRN-NH2]: the pEC50 is 5.82. Still for that read-out and setting: under SFLAR-NH2 [SFLAR-NH2] stands 3.83; under SFLLRNPN, 5.12.

The same assay, now with this note: washed human platelets.
For the molecule DFLLR [DFLLR-NH2], the “EC50 (concentration required to elicit a 50% maximal aggregation)” value is “Inactive”. The same measure, in the same setting: as for FFLLR [FFLLR-NH2], the entry is “Inactive”; as for FLLRNPNDKYEPF, “Inactive”; as for KFLLR [KFLLR-NH2], “Inactive”.

As to “S(Phg)LLR-NH2 (S[Phg]LLR-NH2; N-terminus assumed; SMILES CC(C)C[C@H](NC(=O)[C@H](CC(C)C)NC(=O)[C@@H](NC(=O)[C@@H](N)CO)c1ccccc1)C(=O)N[C@@H](CCCNC(=N)N)C(N)=O)”, the “EC50 (concentration required to elicit a 50% maximal aggregation)” value is reported as “Inactive”.

SALLRNPNDKYE: the “EC50 (concentration required to elicit a 50% maximal aggregation)” value is “Inactive”. With “SF(Aib)LRN-NH2 (SF[Aib]LRN-NH2; N-terminus assumed; SMILES CC(C)C[C@H](NC(=O)C(C)(C)NC(=O)[C@H](Cc1ccccc1)NC(=O)[C@@H](N)CO)C(=O)N[C@@H](CCCNC(=N)N)C(=O)N[C@@H](CC(N)=O)C(N)=O)”, the “EC50 (concentration required to elicit a 50% maximal aggregation)” value is “Inactive”. Turning to “SF(D-Ala)LR-NH2 (SF[dA]LR-NH2; N-terminus assumed; SMILES CC(C)C[C@H](NC(=O)[C@@H](C)NC(=O)[C@H](Cc1ccccc1)NC(=O)[C@@H](N)CO)C(=O)N[C@@H](CCCNC(=N)N)C(N)=O)”, the “EC50 (concentration required to elicit a 50% maximal aggregation)” value is “Inactive”. Consider “SF(b-Ala)LRN-NH2 (SFXLRN; beta-Ala at position 3; C-terminal amide)”, for which the “EC50 (concentration required to elicit a 50% maximal aggregation)” value was “Inactive”. SFDLR [SFDLR-NH2]: the “EC50 (concentration required to elicit a 50% maximal aggregation)” value is “Inactive”.

On to SFLARNPNDKYE, for which the “EC50 (concentration required to elicit a 50% maximal aggregation)” value is reported as “Inactive”.

Regarding SFLER [SFLER-NH2], the “EC50 (concentration required to elicit a 50% maximal aggregation)” value was “Inactive”. Take SFLLDN [SFLLDN-NH2]: the “EC50 (concentration required to elicit a 50% maximal aggregation)” value is on record as “Inactive”. As to SFLLRNPNDYKE, the “EC50 (concentration required to elicit a 50% maximal aggregation)” value is reported as “Inactive”.

Regarding SFLPR [SFLPR-NH2], the “EC50 (concentration required to elicit a 50% maximal aggregation)” value was “Inactive”. The same measure, in the same setting: as for SLLLR [SLLLR-NH2], the entry is “Inactive”.
